Where “and” joins values, the source holds several entries; their conditions need not be identical. Equal entries are not always repeated.
Test system: WM3248 melanoma cells, 486 antibodies
Assay: Reverse phase protein arrays (RPPA)
Assay type: cell-based, Human
Conditions: 20 uM
Source text: Pellets were snap frozen in liquid nitrogen and shipped to MD Anderson Cancer Center core RPPA facility for RPPA analysis (Table S5). Three biological replicates for each sample were generated.
Nomenclatures on the RPPA heatmaps: name_of_antibody.species_of_antibody.status_of_antibody. V - antibody validated; C - validation of antibody in progress; Q - antibody nonspecific; E – under evaluation; antibodies raised in M - mouse, G - goat, R - rabbit, or T - rat.

With `CN(C)c1cccc(Nc2cc(-c3ccccc3)nc(C3CCNCC3)n2)c1` [ARN22089, N1,N1-dimethyl-N3-(6-phenyl-2-(piperidin-4-yl)pyrimidin-4-yl)benzene-1,3-diamine] the “RPPA SGK1.R.V Average” value (average of 3) was 0.842, the “RPPA SGK3.R.V Average” value (average of 3) was 1.023 and the “RPPA SHP2.R.V Average” value (average of 3) was 1.005. The “RPPA SHP.2_pY542.R.C Average” value (average of 3) was 1.076, the “RPPA SIRPαR.V Average” value (average of 3) was 0.981 and the “RPPA SLC1A5.R.C Average” value (average of 3) was 1.080. For the same molecule, the “RPPA SOD1.M.V Average” value (average of 3) was 0.967, the “RPPA SOD2.R.V Average” value (average of 3) was 1.111 and the “RPPA SOX7.R.V Average” value (average of 3) was 1.078. The “RPPA STING.R.V Average” value (average of 3) was 0.964, the “RPPA Shc_pY317.R.C Average” value (average of 3) was 1.012 and the “RPPA Slfn11.G.C Average” value (average of 3) was 0.995. The “RPPA Smac.M.Q Average” value (average of 3) was 0.977, the “RPPA Smad1.R.V Average” value (average of 3) was 1.081 and the “RPPA Smad3.R.V Average” value (average of 3) was 1.101. The “RPPA Smad4.R.V Average” value (average of 3) was 1.112, the “RPPA Snail.M.Q Average” value (average of 3) was 0.754 and the “RPPA Sox2.R.V Average” value (average of 3) was 1.223. The “RPPA Sox17.R.V Average” value (average of 3) was 0.982, the “RPPA Src.M.V Average” value (average of 3) was 0.962 and the “RPPA Src_pY416.R.V Average” value (average of 3) was 1.034. The “RPPA Src_pY527.R.V Average” value (average of 3) was 1.187, the “RPPA Stat3.R.C Average” value (average of 3) was 0.979 and the “RPPA Stat3_pY705.R.C Average” value (average of 3) was 1.281. For the same molecule, the “RPPA Stat5a.R.V Average” value (average of 3) was 1.185, the “RPPA Stathmin.1.R.V Average” value (average of 3) was 0.924 and the “RPPA Syk.M.V Average” value (average of 3) was 0.975. For the same molecule, the “RPPA TAZ.R.V Average” value (average of 3) was 0.719, the “RPPA TEAD.R.C Average” value (average of 3) was 0.998 and the “RPPA TFAM.R.V Average” value (average of 3) was 0.978. The “RPPA TFRC.R.V Average” value (average of 3) was 0.934, the “RPPA TRAP1.M.V Average” value (average of 3) was 0.944 and the “RPPA TRIM24.R.C Average” value (average of 3) was 1.085. The “RPPA TRIM25.R.C Average” value (average of 3) was 0.893, the “RPPA TRIP13.R.V Average” value (average of 3) was 0.978 and the “RPPA Transglutaminase.M.V Average” value (average of 3) was 1.323. For the same molecule, the “RPPA signal, antibody TSC1.R.C, Average” value (average of 3 replicates) was 0.906, the “RPPA signal, antibody TTF1.R.V, Average” value (average of 3 replicates) was 1.016 and the “RPPA signal, antibody TUFM.R.V, Average” value (average of 3 replicates) was 1.103. The “RPPA signal, antibody Tuberin_pT1462.R.V, Average” value (average of 3 replicates) was 1.116, the “RPPA signal, antibody Twist.M.C, Average” value (average of 3 replicates) was 0.954 and the “RPPA signal, antibody Tyro3.R.V, Average” value (average of 3 replicates) was 1.154. The “RPPA signal, antibody U.Histone.H2B.R.C, Average” value (average of 3 replicates) was 2.471, the “RPPA signal, antibody UBAC1.R.V, Average” value (average of 3 replicates) was 1.016 and the “RPPA signal, antibody UGT1A.M.V, Average” value (average of 3 replicates) was 1.000. The “RPPA signal, antibody ULK1_pS757.R.C, Average” value (average of 3 replicates) was 0.908, the “RPPA signal, antibody UQCRC2.M.C, Average” value (average of 3 replicates) was 0.887 and the “RPPA signal, antibody VASP.R.V, Average” value (average of 3 replicates) was 0.952. The “RPPA signal, antibody VAV1.R.C, Average” value (average of 3 replicates) was 1.024, the “RPPA signal, antibody VEGFR.2.R.V, Average” value (average of 3 replicates) was 0.928 and the “RPPA signal, antibody VEGFR.2_pY1175.R.C, Average” value (average of 3 replicates) was 1.063. The “RPPA signal, antibody VHL.EPPK1.M.C, Average” value (average of 3 replicates) was 1.020, the “RPPA signal, antibody VHL.R.C, Average” value (average of 3 replicates) was 0.956 and the “RPPA signal, antibody Vinculin.M.V, Average” value (average of 3 replicates) was 0.913. For the same molecule, the “RPPA signal, antibody WIPI2.R.C, Average” value (average of 3 replicates) was 1.142, the “RPPA signal, antibody WTAP.R.V, Average” value (average of 3 replicates) was 1.197 and the “RPPA signal, antibody Wee1.R.C, Average” value (average of 3 replicates) was 1.011. For the same molecule, the “RPPA signal, antibody XBP.1.G.C, Average” value (average of 3 replicates) was 0.972, the “RPPA signal, antibody XIAP.R.C, Average” value (average of 3 replicates) was 0.993 and the “RPPA signal, antibody XPA.M.V, Average” value (average of 3 replicates) was 0.982. The “RPPA signal, antibody XPF.R.C, Average” value (average of 3 replicates) was 0.952, the “RPPA signal, antibody XRCC1.R.C, Average” value (average of 3 replicates) was 1.024 and the “RPPA signal, antibody YAP.R.C, Average” value (average of 3 replicates) was 0.993. The “RPPA signal, antibody YB1_pS102.R.V, Average” value (average of 3 replicates) was 1.015, the “RPPA signal, antibody YES1.R.V, Average” value (average of 3 replicates) was 0.974 and the “RPPA signal, antibody YTHDF2.R.V, Average” value (average of 3 replicates) was 1.022. For the same molecule, the “RPPA signal, antibody YTHDF3.R.C, Average” value (average of 3 replicates) was 0.957, the “RPPA signal, antibody ZAP.70.R.V, Average” value (average of 3 replicates) was 0.929 and the “RPPA signal, antibody ZEB1.R.V, Average” value (average of 3 replicates) was 1.026. For the same molecule, the “RPPA signal, antibody TSC1.R.C” value (individual replicates) was 0.941 and 0.818 and 0.960, the “RPPA signal, antibody TTF1.R.V” value (individual replicates) was 1.015 and 0.923 and 1.110 and the “RPPA signal, antibody TUFM.R.V” value (individual replicates) was 1.758 and 0.731 and 0.819. For the same molecule, the “RPPA signal, antibody Tuberin.R.V” value (individual replicates) was 0.781 and 1.344 and 1.402, the “RPPA signal, antibody Tuberin_pT1462.R.V” value (individual replicates) was 0.961 and 1.362 and 1.023 and the “RPPA signal, antibody Twist.M.C” value (individual replicates) was 0.937 and 0.987. For the same molecule, the “RPPA signal, antibody Tyro3.R.V” value (individual replicates) was 1.400 and 1.084 and 0.979, the “RPPA signal, antibody U.Histone.H2B.R.C” value (individual replicates) was 5.570 and 0.775 and the “RPPA signal, antibody UBAC1.R.V” value (individual replicates) was 1.007 and 0.954. The “RPPA signal, antibody UBQLN4.M.C” value (individual replicates) was 1.008 and 0.906 and 0.933, the “RPPA signal, antibody UGT1A.M.V” value (individual replicates) was 0.958 and 1.050 and 0.991 and the “RPPA signal, antibody ULK1_pS757.R.C” value (individual replicates) was 0.848 and 1.011.

Reference: article PMC9127750, “Structure-based design of CDC42 effector interaction inhibitors for the treatment of cancer” (Cell reports, 2022)
